Test results as given in the supplement of paper PMC13207355.

Assays:
Conditions in all cases: exposure time: 72 h
[1] = test system: E21 (patient-derived glioblastoma stem cells of mesenchymal subtype); test: surviving fraction (nuclei count normalised to DMSO); higher = more cells surviving (less toxic)
[2] = test system: FT3469 (normal neural stem cell line); test: as above
[3] = test system: E57 (patient-derived glioblastoma stem cells of mesenchymal subtype); test: as above
[4] = test system: E13 (patient-derived glioblastoma stem cells of classical subtype); test: as above
[5] = test system: E31 (patient-derived glioblastoma stem cells of proneural subtype); test: as above
[6] = test system: E34 (patient-derived glioblastoma stem cells of proneural subtype); test: as above
[7] = test system: E28 (patient-derived glioblastoma stem cells of classical subtype); test: as above
[8] = test system: E21; test: phenotypic distance (Euclidean, principal components) from DMSO controls (arbitrary units); higher = stronger morphological change
[9] = test system: FT3469; test: as above
[10] = test system: E57; test: as above
[11] = test system: E13; test: as above
[12] = test system: E31; test: as above
[13] = test system: E34; test: as above
[14] = test system: E28; test: as above
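For phenotypic distance (Euclidean, principal components) from DMSO controls in this document: cell Painting imaging in 384-well plates, CellProfiler features reduced to at least 20 principal components, Euclidean distance versus same-plate DMSO vehicle wells (0.1% v/v), median over six images per well.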
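For surviving fraction (nuclei count normalised to DMSO) in this document: nuclei counted by high-content imaging of Hoechst-stained cells in laminin-coated 384-well plates, relative to 0.1% DMSO vehicle wells, with staurosporine as cell-death control.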

COc1cccc2c(NCc3ccccc3)nc(-n3c(N)nc4ccccc43)nc12 [ML240]
surviving fraction ([1]; 4.1 nM): 1.05 | surviving fraction ([1]; 12.3 nM): 1.01 | surviving fraction ([1]; 37 nM): 1.02 | surviving fraction ([1]; 111.1 nM): 1.1 | surviving fraction ([1]; 333.3 nM): 1.03 | surviving fraction ([1]; 1000 nM): 1.11 | surviving fraction ([1]; 3000 nM): 0.0028 | surviving fraction ([2]; 4.1 nM): 0.963 | surviving fraction ([2]; 12.3 nM): 1.03 | surviving fraction ([2]; 37 nM): 1.15 | surviving fraction ([2]; 111.1 nM): 1.33 | surviving fraction ([2]; 333.3 nM): 1.25 | surviving fraction ([2]; 1000 nM): 0.68 | surviving fraction ([2]; 3000 nM): 0.00884 | surviving fraction ([3]; 4.1 nM): 0.984 | surviving fraction ([3]; 12.3 nM): 0.993 | surviving fraction ([3]; 37 nM): 1.05 | surviving fraction ([3]; 111.1 nM): 0.972 | surviving fraction ([3]; 333.3 nM): 1.08 | surviving fraction ([3]; 1000 nM): 0.255 | surviving fraction ([3]; 3000 nM): 0.00471 | surviving fraction ([4]; 4.1 nM): 1.1 | surviving fraction ([4]; 12.3 nM): 0.999 | surviving fraction ([4]; 37 nM): 1.1 | surviving fraction ([4]; 111.1 nM): 1.02 | surviving fraction ([4]; 333.3 nM): 0.985 | surviving fraction ([4]; 1000 nM): 0.147 | surviving fraction ([4]; 3000 nM): 0.00521 | surviving fraction ([5]; 4.1 nM): 0.934 | surviving fraction ([5]; 12.3 nM): 1.36 | surviving fraction ([5]; 37 nM): 1.1 | surviving fraction ([5]; 111.1 nM): 1.17 | surviving fraction ([5]; 333.3 nM): 1.19 | surviving fraction ([5]; 1000 nM): 0.0987 | surviving fraction ([5]; 3000 nM): 0 | surviving fraction ([6]; 4.1 nM): 1.18 | surviving fraction ([6]; 12.3 nM): 1.12 | surviving fraction ([6]; 37 nM): 1.04 | surviving fraction ([6]; 111.1 nM): 1.05 | surviving fraction ([6]; 333.3 nM): 1.18 | surviving fraction ([6]; 1000 nM): 0.54 | surviving fraction ([6]; 3000 nM): 0.00732 | surviving fraction ([7]; 4.1 nM): 1.09 | surviving fraction ([7]; 12.3 nM): 0.996 | surviving fraction ([7]; 37 nM): 1.01 | surviving fraction ([7]; 111.1 nM): 1.17 | surviving fraction ([7]; 333.3 nM): 1.03 | surviving fraction ([7]; 1000 nM): 0.32 | surviving fraction ([7]; 3000 nM): 0.0108 | phenotypic distance ([8]; 4.1 nM): 0.814 | phenotypic distance ([8]; 12.3 nM): 0.418 | phenotypic distance ([8]; 37 nM): 0.532 | phenotypic distance ([8]; 111.1 nM): 0.655 | phenotypic distance ([8]; 333.3 nM): 0.51 | phenotypic distance ([8]; 1000 nM): 1.08 | phenotypic distance ([8]; 3000 nM): 13.5 | phenotypic distance ([9]; 4.1 nM): 0.656 | phenotypic distance ([9]; 12.3 nM): 0.706 | phenotypic distance ([9]; 37 nM): 0.538 | phenotypic distance ([9]; 111.1 nM): 1.16 | phenotypic distance ([9]; 333.3 nM): 0.736 | phenotypic distance ([9]; 1000 nM): 1.85 | phenotypic distance ([9]; 3000 nM): 11.7 | phenotypic distance ([10]; 4.1 nM): 0.375 | phenotypic distance ([10]; 12.3 nM): 0.566 | phenotypic distance ([10]; 37 nM): 0.385 | phenotypic distance ([10]; 111.1 nM): 0.473 | phenotypic distance ([10]; 333.3 nM): 1.84 | phenotypic distance ([10]; 1000 nM): 4.85 | phenotypic distance ([10]; 3000 nM): 6.71 | phenotypic distance ([11]; 4.1 nM): 0.694 | phenotypic distance ([11]; 12.3 nM): 0.435 | phenotypic distance ([11]; 37 nM): 0.787 | phenotypic distance ([11]; 111.1 nM): 0.753 | phenotypic distance ([11]; 333.3 nM): 0.67 | phenotypic distance ([11]; 1000 nM): 8.35 | phenotypic distance ([11]; 3000 nM): 10.2 | phenotypic distance ([12]; 4.1 nM): 0.647 | phenotypic distance ([12]; 12.3 nM): 0.799 | phenotypic distance ([12]; 37 nM): 0.394 | phenotypic distance ([12]; 111.1 nM): 0.491 | phenotypic distance ([12]; 333.3 nM): 0.297 | phenotypic distance ([12]; 1000 nM): 6.73 | phenotypic distance ([12]; 3000 nM): 18.7 | phenotypic distance ([13]; 4.1 nM): 0.596 | phenotypic distance ([13]; 12.3 nM): 0.636 | phenotypic distance ([13]; 37 nM): 0.602 | phenotypic distance ([13]; 111.1 nM): 0.587 | phenotypic distance ([13]; 333.3 nM): 0.358 | phenotypic distance ([13]; 1000 nM): 1.49 | phenotypic distance ([13]; 3000 nM): 14.2 | phenotypic distance ([14]; 4.1 nM): 0.413 | phenotypic distance ([14]; 12.3 nM): 0.802 | phenotypic distance ([14]; 37 nM): 0.589 | phenotypic distance ([14]; 111.1 nM): 0.977 | phenotypic distance ([14]; 333.3 nM): 0.531 | phenotypic distance ([14]; 1000 nM): 5.33 | phenotypic distance ([14]; 3000 nM): 7.6

CCCCCCCCCCCCCCCC[N+](C)(C)CCN(Cc1ccc(OC)cc1)c1ncccn1 [Thonzonium bromide]
surviving fraction ([1]; 4.1 nM): 0.966 | surviving fraction ([1]; 12.3 nM): 1.03 | surviving fraction ([1]; 37 nM): 1.03 | surviving fraction ([1]; 111.1 nM): 0.987 | surviving fraction ([1]; 333.3 nM): 0.962 | surviving fraction ([1]; 1000 nM): 0.854 | surviving fraction ([1]; 3000 nM): 0.00843 | surviving fraction ([2]; 4.1 nM): 0.999 | surviving fraction ([2]; 12.3 nM): 0.934 | surviving fraction ([2]; 37 nM): 0.968 | surviving fraction ([2]; 111.1 nM): 0.955 | surviving fraction ([2]; 333.3 nM): 0.924 | surviving fraction ([2]; 1000 nM): 0.859 | surviving fraction ([2]; 3000 nM): 0.00702 | surviving fraction ([3]; 4.1 nM): 0.925 | surviving fraction ([3]; 12.3 nM): 1.04 | surviving fraction ([3]; 37 nM): 1.04 | surviving fraction ([3]; 111.1 nM): 1.04 | surviving fraction ([3]; 333.3 nM): 1.13 | surviving fraction ([3]; 1000 nM): 1.01 | surviving fraction ([3]; 3000 nM): 0.00426 | surviving fraction ([4]; 4.1 nM): 1.04 | surviving fraction ([4]; 12.3 nM): 0.969 | surviving fraction ([4]; 37 nM): 0.906 | surviving fraction ([4]; 111.1 nM): 0.816 | surviving fraction ([4]; 333.3 nM): 0.606 | surviving fraction ([4]; 1000 nM): 0.555 | surviving fraction ([4]; 3000 nM): 0.19 | surviving fraction ([5]; 4.1 nM): 1.16 | surviving fraction ([5]; 12.3 nM): 1.1 | surviving fraction ([5]; 37 nM): 1.09 | surviving fraction ([5]; 111.1 nM): 0.966 | surviving fraction ([5]; 333.3 nM): 0.882 | surviving fraction ([5]; 1000 nM): 0.731 | surviving fraction ([5]; 3000 nM): 0.034 | surviving fraction ([6]; 4.1 nM): 1.03 | surviving fraction ([6]; 12.3 nM): 0.954 | surviving fraction ([6]; 37 nM): 1.04 | surviving fraction ([6]; 111.1 nM): 0.965 | surviving fraction ([6]; 333.3 nM): 0.876 | surviving fraction ([6]; 1000 nM): 0.699 | surviving fraction ([6]; 3000 nM): 0.0452 | surviving fraction ([7]; 4.1 nM): 1.08 | surviving fraction ([7]; 12.3 nM): 0.936 | surviving fraction ([7]; 37 nM): 1.09 | surviving fraction ([7]; 111.1 nM): 1.01 | surviving fraction ([7]; 333.3 nM): 0.814 | surviving fraction ([7]; 1000 nM): 0.696 | surviving fraction ([7]; 3000 nM): 0.00389 | phenotypic distance ([8]; 4.1 nM): 0.872 | phenotypic distance ([8]; 12.3 nM): 0.488 | phenotypic distance ([8]; 37 nM): 0.498 | phenotypic distance ([8]; 111.1 nM): 0.528 | phenotypic distance ([8]; 333.3 nM): 1.11 | phenotypic distance ([8]; 1000 nM): 1.7 | phenotypic distance ([8]; 3000 nM): 15.4 | phenotypic distance ([9]; 4.1 nM): 0.743 | phenotypic distance ([9]; 12.3 nM): 3.16 | phenotypic distance ([9]; 37 nM): 0.638 | phenotypic distance ([9]; 111.1 nM): 0.6 | phenotypic distance ([9]; 333.3 nM): 0.582 | phenotypic distance ([9]; 1000 nM): 0.946 | phenotypic distance ([9]; 3000 nM): 11.4 | phenotypic distance ([10]; 4.1 nM): 0.446 | phenotypic distance ([10]; 12.3 nM): 0.566 | phenotypic distance ([10]; 37 nM): 0.663 | phenotypic distance ([10]; 111.1 nM): 1.07 | phenotypic distance ([10]; 333.3 nM): 1.33 | phenotypic distance ([10]; 1000 nM): 1.72 | phenotypic distance ([10]; 3000 nM): 9.5 | phenotypic distance ([11]; 4.1 nM): 0.516 | phenotypic distance ([11]; 12.3 nM): 0.581 | phenotypic distance ([11]; 37 nM): 0.657 | phenotypic distance ([11]; 111.1 nM): 1.02 | phenotypic distance ([11]; 333.3 nM): 1.87 | phenotypic distance ([11]; 1000 nM): 1.97 | phenotypic distance ([11]; 3000 nM): 5.26 | phenotypic distance ([12]; 4.1 nM): 0.672 | phenotypic distance ([12]; 12.3 nM): 0.609 | phenotypic distance ([12]; 37 nM): 0.797 | phenotypic distance ([12]; 111.1 nM): 1.23 | phenotypic distance ([12]; 333.3 nM): 1.32 | phenotypic distance ([12]; 1000 nM): 1.09 | phenotypic distance ([12]; 3000 nM): 9.07 | phenotypic distance ([13]; 4.1 nM): 0.779 | phenotypic distance ([13]; 12.3 nM): 0.535 | phenotypic distance ([13]; 37 nM): 0.676 | phenotypic distance ([13]; 111.1 nM): 0.729 | phenotypic distance ([13]; 333.3 nM): 1.9 | phenotypic distance ([13]; 1000 nM): 1.38 | phenotypic distance ([13]; 3000 nM): 10.2 | phenotypic distance ([14]; 4.1 nM): 0.34 | phenotypic distance ([14]; 12.3 nM): 0.451 | phenotypic distance ([14]; 37 nM): 0.622 | phenotypic distance ([14]; 111.1 nM): 1.04 | phenotypic distance ([14]; 333.3 nM): 0.781 | phenotypic distance ([14]; 1000 nM): 1.5 | phenotypic distance ([14]; 3000 nM): 13.5
